Source: patent US20130261147A1, “COMPOSITION FOR PREVENTING OR TREATING DEMENTIA” (priority 2010, published 2013)
“Also recorded” adds a separate entry of the source.

Key:
[1] = system: sAPPβ; experiment: Western blot of sAPPβ (product of beta-secretase activity), band density; format: cell-based; conditions: 0.1 μg/ml; for effect on secretion / production change of sAPPβ (in words): Western blot; for Reduction Rate of sAPPβ (%) Against Negative Control: band density of Western blot
Description: (§1) Effects of the compounds on the production of a product resulted from the activity of alpha-secretase, sAPPα and a product resulted from the activity of beta-secretase, sAPPβ, were investigated through the Western blot methods of sAPPα and sAPPβ, and the results are shown in FIG. 6. […] The band densities of sAPPα and sAPPβ were measured from the Western blot results of FIG. 6, and the results are shown Table 6 and FIG. 7.

[2] = system: Human Beta Amyloid [1-42] (Aβ42) production in HeLa cell line transfected with Human APP; experiment: Inhibition of Aβ42 production, HeLa cell line transfected with Human APP, colorimetric ELISA of culture medium; format: cell-based; conditions: for inhibitory effect on Aβ42 production, dependence on concentration (in words): over the concentrations tested
Text: (§2) To investigate in vitro inhibitory activity of Lycoris aurea extracts against beta-amyloid production, a HeLa cell line transfected with Human APP was used. This cell line was provided from Professor Tae-Wan Kim (Department of Pathology, Columbia University Medical Center, New York, N.Y. 10032, USA). For the quantity analysis of major beta-amyloids, Aβ40, and Aβ42, which are resulted from the activity of gamma-secretase secreted from cells, Human Beta Amyloid (Aβ40), and Human Beta Amyloid (Aβ42) Colorimetric ELISA Kit (#KHB3482 and #KHB3442; BioSource International, Inc., USA) were each used.
(§3) The alcohol extracts of Lycoris aurea (CN1-M, see Example 1) with certain concentrations set forth in Table 1 below were added to the cell culture medium (DMEM culture medium #11995; GIBCO) cultured with the transfected HeLa cells, which were then cultured at 37° C. for 8 hours. A transfected HeLa cell culture medium with no treatment, to which no Lycoris aurea alcohol extracts were added, was used as a negative control.

[3] = system: Human Beta Amyloid [1-40] (Aβ40) production in HeLa cell line transfected with Human APP; experiment: Inhibition of Aβ40 production, HeLa cell line transfected with Human APP, colorimetric ELISA of culture medium; format: cell-based; conditions: for inhibitory effect on Aβ40 production, dependence on concentration (in words): over the concentrations tested
Text: as §2, §3

[4] = system: cells; experiment: MTT Cell Proliferation assay, cell death activity; format: cell-based; conditions: 8 hours; for cytotoxicity (in words): up to 10 μg/ml
Description: In order to investigate the cell death activity caused by the compounds, lycoricidine and lycoricidinol, MTT Cell Proliferation assay method was used (ATCC catalog #30-1010K, Manassas, USA). After cells were treated with each compound having various concentrations for 8 hours, viable cells were measured quantitatively, and the results are shown in Table 7 and FIG. 8.

[5] = system: sAPPα; experiment: Western blot of sAPPα (product of alpha-secretase activity), band density; format: cell-based; conditions: 0.1 μg/ml; for effect on secretion / production change of sAPPα (in words): Western blot; for Reduction Rate of sAPPα (%) Against Negative Control: band density of Western blot
Description: as §1

[6] = system: alpha-secretase; experiment: Alpha-secretase activity assay kit with total membrane proteins from HeLa cells; format: biochemical; conditions: for Activity Change Rate of Alpha-Secretase (%) against Negative Control: 100%: No Change; for change of the activity of the alpha-secretase (in words): 0.01 and 0.1 μg/ml
Text: In order to investigate which secretase is responsible for the inhibitory effects of the compounds on Aβ production, an activity assay kit (#CBA042; Calbiochem, USA) of the alpha-secretase was used. For the alpha-secretase, the total membrane proteins obtained from the HeLa cells (see Test Example 1) were used.

O=C1NC2C(=CC(O)C(O)C2O)c2cc3c(cc21)OCO3 (centres unmarked) [Lycoricidine, lycoricidine]
effect on secretion / production change of sAPPβ (in words) [1]: did not affect the secretion; also recorded: not significant
Reduction Rate of sAPPβ (%) Against Negative Control [1]: 17%
inhibition at 0.01 µg/mL ([2]; Homo sapiens, HeLa, 0.01 μg/ml, read-out: Aβ42 Production Inhibitory Rate (%) against Negative Control): 16%
inhibition at 0.1 µg/mL ([2]; Homo sapiens, HeLa, 0.1 μg/ml, read-out: Aβ42 Production Inhibitory Rate (%) against Negative Control): 81.3%
inhibition at 1 µg/mL ([2]; Homo sapiens, HeLa, 1 μg/ml, read-out: Aβ42 Production Inhibitory Rate (%) against Negative Control): 97.5%
inhibition at 10 µg/mL ([2]; Homo sapiens, HeLa, 10 μg/ml, read-out: Aβ42 Production Inhibitory Rate (%) against Negative Control): 100%
inhibitory effect on Aβ42 production, dependence on concentration (in words) [2]: concentration-dependent
inhibition at 0.01 µg/mL ([3]; Homo sapiens, HeLa, 0.01 μg/ml, read-out: Aβ40 Production Inhibitory Rate (%) against Negative Control): 3.3%
inhibition at 0.1 µg/mL ([3]; Homo sapiens, HeLa, 0.1 μg/ml, read-out: Aβ40 Production Inhibitory Rate (%) against Negative Control): 67%
inhibition at 1 µg/mL ([3]; Homo sapiens, HeLa, 1 μg/ml, read-out: Aβ40 Production Inhibitory Rate (%) against Negative Control): 92.8%
inhibition at 10 µg/mL ([3]; Homo sapiens, HeLa, 10 μg/ml, read-out: Aβ40 Production Inhibitory Rate (%) against Negative Control): 97.2%
inhibitory effect on Aβ40 production, dependence on concentration (in words) [3]: concentration-dependent
Cell Death Rate (%) against Negative Control ([4]; 0.01 μg/ml): 4.9%
Cell Death Rate (%) against Negative Control ([4]; 0.1 μg/ml): 11.3%
Cell Death Rate (%) against Negative Control ([4]; 1 μg/ml): 19%
Cell Death Rate (%) against Negative Control ([4]; 10 μg/ml): 21.1%
cytotoxicity (in words) [4]: not cytotoxic
effect on secretion / production change of sAPPα (in words) [5]: did not affect the secretion; also recorded: not significant
Reduction Rate of sAPPα (%) Against Negative Control [5]: 12%
Activity Change Rate of Alpha-Secretase (%) against Negative Control ([6]; 0.01 μg/ml): 106%
Activity Change Rate of Alpha-Secretase (%) against Negative Control ([6]; 0.1 μg/ml): 110%
change of the activity of the alpha-secretase (in words) [6]: did not change the activity

O=C1NC2C(=CC(O)C(O)C2O)c2cc3c(c(O)c21)OCO3 (centres unmarked) [Lycoricidinol, lycoricidinol]
effect on secretion / production change of sAPPβ (in words) [1]: did not affect the secretion; also recorded: not significant
Reduction Rate of sAPPβ (%) Against Negative Control [1]: 7.5%
Aβ42 Production Inhibitory Rate (%) against Negative Control ([2]; 0.01 μg/ml): 44.0%
Aβ42 Production Inhibitory Rate (%) against Negative Control ([2]; 0.1 μg/ml): 97.0%
Aβ42 Production Inhibitory Rate (%) against Negative Control ([2]; 1 μg/ml): 100%
Aβ42 Production Inhibitory Rate (%) against Negative Control ([2]; 10 μg/ml): 100%
inhibitory effect on Aβ42 production, dependence on concentration (in words) [2]: concentration-dependent
Aβ40 Production Inhibitory Rate (%) against Negative Control ([3]; 0.01 μg/ml): 25.0%
Aβ40 Production Inhibitory Rate (%) against Negative Control ([3]; 0.1 μg/ml): 90.4%
Aβ40 Production Inhibitory Rate (%) against Negative Control ([3]; 1 μg/ml): 97.8%
Aβ40 Production Inhibitory Rate (%) against Negative Control ([3]; 10 μg/ml): 98.4%
inhibitory effect on Aβ40 production, dependence on concentration (in words) [3]: concentration-dependent
Cell Death Rate (%) against Negative Control ([4]; 0.01 μg/ml): 10.3%
Cell Death Rate (%) against Negative Control ([4]; 0.1 μg/ml): 11.6%
Cell Death Rate (%) against Negative Control ([4]; 1 μg/ml): 16.5%
Cell Death Rate (%) against Negative Control ([4]; 10 μg/ml): 19.3%
cytotoxicity (in words) [4]: not cytotoxic
effect on secretion / production change of sAPPα (in words) [5]: did not affect the secretion; also recorded: not significant
Reduction Rate of sAPPα (%) Against Negative Control [5]: 1.0%
Activity Change Rate of Alpha-Secretase (%) against Negative Control ([6]; 0.01 μg/ml): 94%
Activity Change Rate of Alpha-Secretase (%) against Negative Control ([6]; 0.1 μg/ml): 100%
change of the activity of the alpha-secretase (in words) [6]: did not change the activity
